Results from patent US10287267B2, “Isoquinolin-3-yl carboxamides and preparation and use thereof” (Samumed, LLC, priority 2016, dated 2019).

Assays:
IL-6 = IL-6 inhibition in LPS-stimulated human peripheral blood mononuclear cells (HTRF); assay type: cell-based; conditions: Homo sapiens, PBMC; for EC50: Table 9, huPBMCs, LPS 50 ng/mL, 22 hours, dose-response starting from 10 μM; for inhibition at 10 µM: read-out: percent value in parentheses beside EC50 >10 μM;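 for all read-outs here: IL-6 detected by HTRF with an XL665- and Cryptate-labelled anti-IL-6 antibody pair, samples run in duplicate, EC50 obtained from a four-parameter Levenberg-Marquardt curve fit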
Method: After 22 hour incubation, a mixture of anti-IL6 XL665 and anti-IL-6 Cryptate diluted in reconstitution buffer (Catalog #62IL6PEC, Cisbio Inc., Bedford, Mass.) was added to each well. […] All samples were processed in duplicate. […] EC50 was determined using software generated by Dotmatics Limited (Windhill Bishops Stortford Herts, UK) using the Levenberg-Marquardt 4 parameter fitting procedure with finite different gradients.

[1] = test system: SW480 colon carcinoma cells; assay: Cell viability assay (CellTiter-Glo); assay type: cell-based, human; conditions: Homo sapiens; for EC50: 96 h, SW480 cells, CellTiter-Glo, four days incubation; for inhibition at 10 µM: SW480, read-out: percent inhibition at 10 μM
[2] = test system: Tau phosphorylation at Ser396 (pSer396); assay: Tau phosphorylation assay (pSer396 ELISA / western blot) in SH-SY5Y cells; assay type: cell-based, human; conditions: Homo sapiens; SH-SY5Y cells, overnight (16-18 h) exposure; read-out: pSer396 Tau EC50;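 note: EC50 for reduction of Tau pSer396 in lysed cells, measured by colorimetric ELISA or chemiluminescent western blot, both using the same pSer396 antibody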
recombinant GSK3β kinase = recombinant GSK3β kinase (Homo sapiens (Human), UniProt P49841); assay: GSK3β kinase assay (Ser/Thr 09 peptide Z-lyte FRET); assay type: biochemical; conditions: 46 μM ATP, 1 h room temperature;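 note: kinase activity read as coumarin to fluorescein emission ratio, 11-point threefold dilutions from 10 µM to 0.0003 µM in duplicate, unphosphorylated and phosphorylated peptide as 0% and 100% controls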
Chain of recombinant GSK3β kinase (P49841 whole entry): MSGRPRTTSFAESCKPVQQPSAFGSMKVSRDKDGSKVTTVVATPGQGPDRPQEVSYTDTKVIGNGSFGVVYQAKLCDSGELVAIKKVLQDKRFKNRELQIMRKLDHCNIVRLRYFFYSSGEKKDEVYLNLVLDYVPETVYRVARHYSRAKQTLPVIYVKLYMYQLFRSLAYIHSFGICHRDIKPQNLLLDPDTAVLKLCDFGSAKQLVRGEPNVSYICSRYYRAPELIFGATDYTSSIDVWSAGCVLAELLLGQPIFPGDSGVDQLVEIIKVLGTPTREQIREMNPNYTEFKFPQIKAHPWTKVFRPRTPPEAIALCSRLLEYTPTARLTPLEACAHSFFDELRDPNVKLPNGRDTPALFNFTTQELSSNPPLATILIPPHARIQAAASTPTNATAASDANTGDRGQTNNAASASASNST

[3] = biological target: recombinant DYRK1A kinase (Homo sapiens (Human), UniProt Q13627); assay: DYRK1A kinase assay (Ser/Thr 18 peptide Z-lyte FRET); assay type: biochemical; conditions: 30 μM ATP, 1 h room temperature;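 note: Read-out is the coumarin to fluorescein emission ratio, referenced to unphosphorylated (0%) and phosphorylated (100%) Ser/Thr 18 peptide controls, values from dose-response curves by non-linear regression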
[4] = test system: Wnt pathway (Sp5-Luc reporter, TCF/LEF binding sites) in SW480 colon carcinoma cells; assay: Screening assay for Wnt activity: Sp5-Luc reporter gene assay; assay type: cell-based, human; conditions: Homo sapiens; for EC50: Sp5-Luc reporter, SW480 cells, 36 to 48 hours;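 for all read-outs here: firefly luciferase luminescence read in stably transduced SW480 cells carrying the Sp5 promoter reporter with eight TCF/LEF sites, compounds given in 0.1% DMSO final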
Method: The screening assay for Wnt activity is described as follows.
Following incubation, 15 μl of BriteLite Plus luminescence reagent (Perkin Elmer) was added to each well of the 384-well assay plates. The plates were placed on an orbital shaker for 2 min and then luminescence was quantified using the Envision (Perkin Elmer) plate reader.

Compound | EC50 (IL-6) [nM] | EC50 [1] [nM] | EC50 [2] [nM] | EC50 (recombinant GSK3β kinase) [nM] | EC50 [3] [nM] | EC50 [4] [nM] | inhibition at 10 µM (IL-6) [%] | inhibition at 10 µM [1] [%] | inhibition at 10 µM ([4]; SW480, read-out: percent inhibition at 10 μM) [%]
CC(C)CN1CCCC(C(=O)Nc2cc3cc(-c4cnn(C)c4)ccc3cn2)CC1 (centres unmarked) [Compound 1079, 1-Isobutyl-N-(6-(1-methyl-1H-pyrazol-4-yl)isoquinolin-3-yl)azepane-4-carboxamide] | 1210 | 2600 | 190 | 48 | 5.7 | 1430 | – | – | –
CN(C)c1nnc(-c2ccc3cnc(NC(=O)C4CCNCC4)cc3c2)o1 [Compound 1075, N-(6-(5-(Dimethylamino)-1,3,4-oxadiazol-2-yl)isoquinolin-3-yl)piperidine-4-carboxamide] | 3270 | 5280 | 709 | 15 | 13.7 | 2540 | – | – | –
Cc1ncc(-c2ccc3cnc(NC(=O)[C@H]4C[C@H](N5CCOCC5)C4)cc3c2)o1 [Compound 1061, trans-N-(6-(2-Methyloxazol-5-yl)isoquinolin-3-yl)-3-morpholinocyclobutane-1-carboxamide] | 947 | 1600 | 58 | 8 | 4.3 | 1610 | – | – | –
Cc1ncc(-c2ccc3cnc(NC(=O)[C@H]4CC[C@H](N(C)C)CC4)cc3c2)o1 [Compound 1082, trans-4-(Dimethylamino)-N-(6-(2-methyloxazol-5-yl)isoquinolin-3-yl) cyclohexane-1-carboxamide] | 2930 | 7100 | 1100 | 210 | 10.2 | 9900 | – | – | –
Cn1ncc(-c2ccc3cnc(NC(=O)[C@H]4CC[C@H](CO)CC4)cc3c2)c1CN1CCCCC1 [Compound 798, trans-4-(Hydroxymethyl)-N-(6-(1-methyl-5-(piperidin-1-ylmethyl)-1H-pyrazol-4-yl)isoquinolin-3-yl)cyclohexane-1-carboxamide] | 1270 | 613 | 320 | 31 | 3.1 | 594 | – | – | –
CCN(CC)c1ncc(-c2ccc3cnc(NC(=O)CN4CCN(C)CC4)cc3c2)s1 [Compound 1048, N-(6-(2-(Diethylamino)thiazol-5-yl)isoquinolin-3-yl)-2-(4-methylpiperazin-1-yl)acetamide] | > 10000 | 4060 | 4700 | 5810 | 541 | 9380 | 4.3 | – | –
Cc1ncc(-c2ccc3cnc(NC(=O)CN4CCOCC4)cc3c2)o1 [Compound 1067, N-(6-(2-Methyloxazol-5-yl)isoquinolin-3-yl)-2-morpholinoacetamide] | 8940 | > 10000 | 729 | 67 | 18.8 | > 10000 | – | 43.1 | 48.7
CNc1ncc(-c2ccc3cnc(NC(=O)C4CCN(C)CC4)cc3c2)s1 [Compound 1041, 1-Methyl-N-(6-(2-(methylamino)thiazol-5-yl)isoquinolin-3-yl)piperidine-4-carboxamide] | 941 | 2760 | 1300 | 58 | 3.3 | 776 | – | – | –
CN1CCC(NC(=O)Nc2cc3cc(-c4cnn(C)c4)ccc3cn2)CC1 [Compound 1090, 1-(6-(1-Methyl-1H-pyrazol-4-yl)isoquinolin-3-yl)-3-(1-methylpiperidin-4-yl)urea] | 484 | 994 | 969 | 288 | 6.9 | 722 | – | – | –
Cn1cc(-c2ccc3cnc(NC(=O)[C@H]4C[C@H](N5CCOCC5)C4)cc3c2)cn1 [Compound 1035, trans-N-(6-(1-Methyl-1H-pyrazol-4-yl)isoquinolin-3-yl)-3-morpholinocyclobutane-1-carboxamide] | 1030 | 2460 | 129 | 10 | 2.6 | 1370 | – | – | –
CC(F)(F)CN1CCC(C(=O)Nc2cc3cc(-c4cncs4)ccc3cn2)CC1 [Compound 731, 1-(2,2-Difluoropropyl)-N-(6-(thiazol-5-yl)isoquinolin-3-yl)piperidine-4-carboxamide] | 1180 | 1100 | 450 | 42 | 1.4 | 3050 | – | – | –
Cc1nnc(-c2ccc3cnc(NC(=O)CN4CCCOCC4)cc3c2)s1 [Compound 1049, N-(6-(5-Methyl-1,3,4-thiadiazol-2-yl)isoquinolin-3-yl)-2-(1,4-oxazepan-4-yl) acetamide] | > 10000 | > 10000 | 319 | 12 | 6.9 | 2540 | 10.4 | 31.3 | –
